Measured values published in patent publication US10072009B2, “N-substituted beta-carbolinium compounds as potent P-glycoprotein inducers” (Council of Scientific and Industrial Research, priority 2014, dated 2018).
Like-named read-outs stand apart in the source and are kept apart here. One block for each molecule: values may come before it.

Assays:
P-glycoprotein = test: P-glycoprotein-induction assay (rhodamine123 cell exclusion method) in LS-180 cells; details: for % Rh123 accumulation in LS-180 cells after 48 h: control = 100; for EC50: read-out: Pgp induction EC50 value, LS180 cells treated 48 h, Rh123 fluorescence vs concentration
Experimental: P-glycoprotein-induction assay. All synthesized compounds were screened for their ability to induce P-glycoprotein by using rhodamine123 (Rh123) cell exclusion method. In this method, the P-glycoprotein function was evaluated in terms of rhodamine 123 (Rh123) accumulation and efflux. Briefly, the protocol used is as follows: Colorectal LS180 cells Colorectal LS-180 cells [obtained from ECACC (European Collection of Cell Cultures) catalogue number: 87021202; passage number 52] were seeded at a density of 2×10^4 per well of 96 well plate and were allowed to grow for next 24 h. Cells were further incubated with the test compounds, and were diluted to a final concentration of 100 nM and rifampicin (standard) to a final concentration of 10 μM in complete media for 48 h. The final concentration of DMSO was kept at 0.1%. Drugs were removed and cells were incubated with HANKS buffer for 40 minutes before further incubation with HANKS buffer (containing 10 μM of Rh123 as a P-glycoprotein substrate) for 90 minutes. At the end of Rh123 treatment cells were washed four times with cold PBS followed by cell lysis for 1 h by using 200 μl of lysis buffer (0.1% Triton X-100 and 0.2 N NaOH). A total of 100 μl of lysate was used for reading fluorescence of Rh123 at 485 nm/529 nm Samples were normalized by dividing fluorescence of each sample with total protein present in the lysate. The Pgp-induction activity was measured in terms of the % intracellular accumulation of rhodamine 123/total protein inside LS180 cells. The decrease in the % intracellular accumulation (compared to control) of Rh123 indicates induction of P-glycoprotein as shown in Table 1. Rifampicin (10 μM) was used as a reference P-glycoprotein inducer. Statistical comparisons were made between control vs compounds by using Bonferroni test. The p value <0.5 was considered to be significant.
The decrease in % intracellular accumulation (compared to control) of Rh123 indicates induction of Pgp. Rifampicin (10 μM) was used as a reference Pgp inducer.
EC50 determination in p-glycoprotein-induction assay. […] For EC50 determination, different concentrations of compound were used to treat LS180 cells for 48 h. EC50 was determined by plotting fluoroscence of Rh123 against concentration of compound.

[1] = Thermodynamic equilibrium solubility; type: physicochemical; details: for solubility: 25 °C, thermodynamic from solid
Experimental: Determination of thermodynamic equilibrium solubility. The compounds were first dissolved in methanol to prepare stock solutions (100 and 1000 μg/mL) Different concentrations of stock solutions were pipetted into the 96-well plates and the solvent was evaporated to ensure that solid drug was present in the beginning of the experiment. […] The plates were kept overnight for equilibration of drug in medium. Later, the plates were centrifuged at 3000 rpm for 15 min (Jouan centrifuge BR4i). Supernatant (50 μl) was pipetted into UV 96-well plates (Corning® 96 Well Clear Flat Bottom UV-Transparent Microplate) for analyses with plate reader (SpectraMax Plus384) at λmax of 350 nm. The analyses were performed in triplicate for each compound. The solubility curve of concentration (μg/mL) vs absorbance was plotted to find out saturation point and the corresponding concentration was noted. The solubility of fascaplysin (1) and compounds 6 and 11 was determined.

[2] = test system: mouse leukemia cells L-1210; details: read-out: ED50, suppression of proliferation of L-1210 cells; cited from earlier work
[3] = target: acetylcholinesterase (AChE); details: read-out: AChE inhibition IC50; cited from earlier work
[4] = compounds at 5 μM (table footnote), decrease indicates Pgp induction

- EC50 (P-glycoprotein): 3 nM
- Solubility in Water [1]: 800 µg/mL
- solubility ([1]; water, Solubility in Water): > 800 µg/mL
Molecule: Cn1c2ccccc2c2cc[n+](C)c(C(=O)c3ccccc3Br)c21 [Compound 11, 1-(2-bromo-benzoyl)-9,N-dimethyl beta-carbolinium iodide]
- % Rh123 accumulation in LS-180 cells after 48 h (P-glycoprotein; [4]): 70.1 ± 6.7 %

Molecule: O=C1c2cc(F)c(Cl)cc2-[n+]2ccc3c([nH]c4ccccc43)c21 [Compound 3, 4-chloro-5-fluoro-fascaplysin]
- % Rh123 accumulation in LS-180 cells after 48 h (P-glycoprotein; [4]): 55.5 ± 6.9 %

Molecule: O=C1c2ccccc2-[n+]2ccc3c([nH]c4ccccc43)c21.[Cl-] [Compound 1, Fascaplysin]
- EC50 [2]: 200 nM
- EC50 (P-glycoprotein): 2.8 nM
- IC50 [3]: 1490 nM
- solubility ([1]; aqueous buffer, phosphate buffer saline, read-out: Solubility in PBS): > 1500 µg/mL
- solubility ([1]; simulated gastric fluid, simulated gastric fluid, read-out: Solubility in SGF): > 1500 µg/mL
- solubility ([1]; simulated intestinal fluid, read-out: Solubility in SIF): > 1500 µg/mL
- solubility ([1]; water, water, 25±1° C., thermodynamic equilibrium, read-out: Solubility in Water): > 800 µg/mL
- Solubility in Water ([1]; water, 25±1° C., thermodynamic equilibrium): >1500 µg/mL

Molecule: Cn1c2ccccc2c2cc[n+](C)c(C(=O)c3ccccc3F)c21 [Compound 13, 1-(2-fluoro-benzoyl)-9,N-dimethyl beta-carbolinium iodide]
- % Rh123 accumulation in LS-180 cells after 48 h (P-glycoprotein; [4]): 79.0 ± 6.0 %

Molecule: Cn1c2ccccc2c2cc[n+](C)c(C(=O)c3c[nH]c4ccccc34)c21 [Compound 10, 1-(3-indoloyl)-9,N-dimethyl beta-carbolinium iodide]
- % Rh123 accumulation in LS-180 cells after 48 h (P-glycoprotein; [4]): 77.6 ± 7.6 %

Molecule: O=C1c2ccc(Cl)cc2-[n+]2ccc3c([nH]c4ccccc43)c21 [Compound 2, 4-chloro-fascaplysin]
- % Rh123 accumulation in LS-180 cells after 48 h (P-glycoprotein; [4]): 57.1 ± 9.2 %

- EC50 (P-glycoprotein): 2 nM
- Solubility in Water [1]: >1500 µg/mL
- solubility ([1]; aqueous buffer, Solubility in PBS): 80 µg/mL
- solubility ([1]; fassgf or other biorelevant, Solubility in SIF): < 5 µg/mL
- solubility ([1]; simulated gastric fluid, Solubility in SGF): 80 µg/mL
- solubility ([1]; water, Solubility in Water): > 800 µg/mL
Molecule: O=C1c2cc(F)c(F)cc2-[n+]2ccc3c([nH]c4ccccc43)c21 [Compound 6, 4,5-difluoro-fascaplysin]
- % Rh123 accumulation in LS-180 cells after 48 h (P-glycoprotein; [4]): 49.6 ± 1.2 %

Molecule: Cn1c2ccccc2c2cc[n+](C)c(C(=O)c3ccccc3)c21 [Compound 8, 1-benzoyl-9,N-dimethyl beta-carbolinium iodide]
- % Rh123 accumulation in LS-180 cells after 48 h (P-glycoprotein; [4]): 75.2 ± 9.1 %

Molecule: O=C1c2ccc(Cl)c(Cl)c2-[n+]2ccc3c([nH]c4ccccc43)c21 [Compound 4, 3,4-dichloro-fascaplysin]
- % Rh123 accumulation in LS-180 cells after 48 h (P-glycoprotein; [4]): 57.8 ± 8.3 %

Molecule: 6-chloro-fascaplysin [Compound 5]
- % Rh123 accumulation in LS-180 cells after 48 h (P-glycoprotein; [4]): 59.2 ± 6.7 %

Molecule: Cn1c2ccccc2c2cc[n+](C)c(C(=O)c3ccccc3Cl)c21 [Compound 9, 1-(2-chloro-benzoyl)-9, N,N-dimethyl beta-carbolinium iodide]
- % Rh123 accumulation in LS-180 cells after 48 h (P-glycoprotein; [4]): 71.4 ± 8.4 %

Molecule: CO[C@H]1/C=C/O[C@@]2(C)Oc3c(C)c(O)c4c(O)c(c(/C=N/N5CCN(C)CC5)c(O)c4c3C2=O)NC(=O)/C(C)=C\C=C\[C@H](C)[C@H](O)[C@@H](C)[C@@H](O)[C@@H](C)[C@H](OC(C)=O)[C@@H]1C [Rifampicin, reference compound]
- % Rh123 accumulation in LS-180 cells after 48 h (P-glycoprotein; rifampicin 10 μM, reference Pgp inducer): 67.1 ± 4.6 %

Molecule: Cn1c2ccccc2c2cc[n+](C)c(C(=O)c3ccc(C(F)(F)F)cc3)c21 [Compound 12, 1-(4-trifluoromethyl-benzoyl)-9,N-dimethyl beta-carbolinium iodide]
- % Rh123 accumulation in LS-180 cells after 48 h (P-glycoprotein; [4]): 78.5 ± 5.8 %

Molecule: O=C1c2cc(Cl)ccc2-[n+]2ccc3c([nH]c4ccccc43)c21 [Compound 7, 5-chloro-fascaplysin]
- % Rh123 accumulation in LS-180 cells after 48 h (P-glycoprotein; [4]): 58.7 ± 7.8 %
